US20240139149A1, “THERAPEUTIC USES OF UROLITHIN DERIVATIVES” (Vandria SA, priority 2022, published 2024)

Columns and labels:
[1] = test system: APTK-s.c. tumors; test: Subcutaneous APTK organoid tumors, UA diet, with TIL analysis; type: in vivo, mouse
Procedure: Urolithin A containing diet (2.28 g/kg) or AIN− 93G control food (Brogaarden) were given ad libitum once introduced for experimental purpose at the indicated time.
For subcutaneous colorectal cancers, APTK organoids were mechanistically disrupted, incubated with Accutase to generate a single cell suspension and reconstituted in PBS 20% Matrigel (Corning) for subcutaneous transplantation. Tumor sizes were measured at the indicated time after transplantation and tumor volume quantified as ½(width2×length). Urolithin A or control food regiment were initiated either one week before tumor challenge or 11 days after tumor development. Therapeutic diets were maintained throughout the experiment unless indicated otherwise.
Tumors were minced and digested with Tumor & Tissue Dissociation Reagent (BD Horizon) for 30 min. The remaining organ pieces were filtered through a 70 m cell strainer. Cells were then washed with PBS 1% BSA and 2 mM EDTA. Immune cells were enriched on a 30%/40%/75% Percoll gradient after a 1700 rpm 17 min centrifugation. Then, tumor immune filtrates or activated T cells were stained with Fixable Viability Dye-eF780 (65-0865-14; eBioscience), αCD45-FITC (30-F11; 11-0451-85; eBioscience), αCD11b-BV650 (M1/70; 56340; BD) α-CD11c-BV785 (HL3; 563735; BD), aLy6G-BV605 (53-6.7; 563005; BD), aLy6C-AF700 (HK1.4; 128024; Biolegend), aF4/80-PE (BM8; 12-4801-82, eBioscience), aPD-L1-PECy7 (MIH5; 25-5982-80, eBioscience); or with Fixable Viability Dye-eF780 (ebioscience), αCD45-BV786 (30-F11; 564225; BD), αCD4-BUV496 (GK1.5; 564667; BD), αCD8-BV605 (100744; Biolegend), aPD1-APC (J43; 17-9985-82; eBioscience), aTIM-3-PECy7 (RMT3-23; 119715; Biolegend), aCTLA4-PE (UC10-4B9; 106305; Biolegend) and aLag3-BV421 (C9B7W; 125221, Biolegend); or with Fixable Viability Dye-eF780 (eBioscience), αCD4-FITC (H129.19; 553650; BD), αCD8-APC (53-6.7; 17-0081-83; eBioscience), αCD44-AF400 (IM7; 103026; Biolegend), αCD62L-BV785 (MEL-14; 104440; Biolegend), αSca-1-PerCP-Cy5.5 (D7; 45-5981-82; eBioscience), αCD95-PE (Jo2; 554258; BD); or with Fixable Viability Dye-eF780 (eBioscience), αCD8-BV650 (53-6.7; 563234; BD), αCD4-BUV496 (GK1.5; 564667; BD), αCD127-APC (A7R34; 17-1271-82; eBioscience), αCD95-FITC (SA367H8;152605; Biolegend), αCD44-AF400 (IM7; 103026; Biolegend), αCD62L-BV785 (MEL-14; 104440; Biolegend), αSca-1-PerCP-Cy5.5 (D7; 45-5981-82; eBioscience) followed by intracellular staining of aTCF1-PE (S33-966; 564217; BD), or PGC-1α (sc-518025; D-5; santa cruz), or aCyclinD1 (MA5-28534, DCS-6; Invitrogen) with transcription factor buffer set kit (BD Biosciences). To study cytokine expression, tumor immune infiltrates were stimulated ex vivo with 20 ng/mL PMA and 1 g/mL Ionomycin (Sigma) for 3 h in T cell activation medium with Brefeldin A (Biolegend).

[2] = test system: cortical neurons and microglial cells injured with Aβ1-42; test: Rat primary culture of cortical neurons and microglial cells injured with Aβ1-42; type: cell-based
Procedure: Pregnant female rat (Wistar) of 15 days of gestation were killed using a deep anesthesia with CO2 chamber and a cervical dislocation. Fetuses were collected and immediately placed in ice-cold L15 Leibovitz medium with a 2% penicillin (10,000 U/mL) and streptomycin (10 mg/mL) solution (PS) and 1% bovine serum albumin (BSA). Cortex were specifically dissected and then were treated for 20 min at 37° C. with a trypsin-EDTA solution at a final concentration of 0.05% trypsin and 0.02% EDTA. The dissociation was stopped by addition of Dulbecco's modified Eagle's medium (DMEM) with 4.5 g/L of glucose, containing DNAse I grade II (final concentration 0.5 mg/mL) and 10% fetal calf serum (FCS). Cells were mechanically dissociated by three forced passages through the tip of a 10-mL pipette. Cells were then centrifuged at 515×g for 10 min at 4° C. The supernatant was discarded, and the pellet was resuspended in a defined culture medium consisting of Neurobasal medium with a 2% solution of B27 supplement, 2 mmol/liter of L-glutamine, 2% of PS solution, 10 ng/mL of brain-derived neurotrophic factor (BDNF), 2% of heat-inactivated horse serum, 2% of heat-inactivated FCS, 1 g/L of glucose, 1 mM of sodium pyruvate, and 100 μM of non-essential amino acids. The presence of serum in the medium allows the growth of the microglial cells. Viable cells were counted in a Neubauer cytometer, using the trypan blue exclusion test.
The cells were seeded at a density of 45 000 per well in 96-well plate precoated with poly-L-lysine and were cultured at 37° C. in an air (95%)—CO2 (5%) incubator. The medium was changed every 2 days.
On day 11 of culture, the compounds were dissolved in the appropriate vehicle and pre-incubated with the primary cortical neurons for one hour (1 h), before Aβ1-42 exposure.
On day 11 of culture, the cortical neurons were injured with the AP 1-42 peptide. AP 1-42 peptide was dissolved in the defined culture medium mentioned above, at an initial concentration of 20 μM. The solution was gently agitated for 3 days at 37° C. in the dark and immediately used after being properly diluted in culture medium to the concentration used (5 μM, 0.5 μM oligomers precisely evaluated by automatic WB). The AP 1-42 solution was applied on the culture at […] (0.5 μM oligomers, AβO), in presence of the compound, for 72 hours.
72 hours after the application of Aβ, the cell culture supernatant was removed. Cells were then washed with phosphate-buffered saline (PBS) and fixed with a cold solution of ethanol (95%) and acetic acid (5%) for 5 min at −20° C. After two washing steps with cold PBS, cells permeabilized and unspecific binding sites were blocked with a solution of PBS containing 0.1% of saponin and 1% of FCS, for 15 min at RT. Cells were incubated for 2 hours with: • a) Monoclonal anti-MAP2 antibody produced in mouse at dilution of 1/400 in PBS containing 1% FCS, 0.1% saponin, for 2 hours at room temperature. • b) Rabbit polyclonal antibody anti-SIRP alpha/CD172a (OX-41) at dilution of 1/400 in PBS containing 1% fetal calf serum and 0.1% of saponin (this antibody stains specifically the microglia and will allow to evaluate the activation of the microglial cells).
For each condition, 30 pictures (representative of the whole well area) were automatically taken using ImageXpress® (Molecular Devices) at 20× magnification using the same acquisition parameters. From images, the analyses were automatically performed by MetaXpress® (Molecular Devices). The following read-outs were measured: • Total neuron survival (number of MAP-2(+) neurons), • Total length of neurite network of MAP-2(+) neurons (in μm) • Total area of activated microglia (area of OX-41 signal, in μm^2)
All values are expressed as mean+/−SEM (standard error of the mean). Statistical analysis was performed by one-way ANOVA followed by Fisher's LSD test, with GraphPad Prism. p<0.05 was considered significant.

[3] = test system: mouse T lymphocytes; test: Proportion of mouse T memory stem cells (Tscm); type: cell-based; conditions: 2 μM, 72 h
Procedure: T cells were isolated and stimulated as described in Example 14.
Tscm represent a subset of minimally differentiated T cells, which share a CD44^loCD62L^hi phenotype with naïve T cells, but are phenotypically distinct by expressing high levels of Sca1 (Gattinoni et al., 2009). Tscm are therefore identified as CD44^−CD62L^+Sca1^hi cells.
Flow cytometry and analysis was performed as described in Example 14.

[4] = C57BL/6 mice, s.c. APTK organoids, UA-supplemented diet
[5] = 123 and 370 nM, Aβ1-42 72 hours

| Compound | CD8+ T cell infiltration [1, 4] | tumor growth [1, 4] | tumor response in combination with PD-1 blockade ([1]; C57BL/6 mice, s.c. APTK tumors, UA diet plus α-PD-1) | tumor suppressive effect in Pink1−/− mice ([1]; Pink1−/− mice, s.c. APTK organoids, UA diet) | protective effect on tumor growth in Rag1−/− mice ([1]; Rag1−/− mice (no mature T and B cells), s.c. APTK organoids, UA diet) | CD4+ TSCM, dendritic cells, TAMs, MDSC subsets in tumors ([1]; UA diet vs control diet) | CD8+CD44loCD62LhiSca1hi T cells in APTK-induced tumors ([1]; UA diet vs control diet) | TCF1 expression in tumor infiltrating CD8+ T cells ([1]; UA diet vs control diet) | mitochondrial content in TIL of APTK tumors ([1]; UA diet vs control diet) | exhaustion markers PD-1, CTLA-4 and Tim3 in CD8+ T cells ([1]; UA-fed mice) | TNFα and IFNγ in tumor infiltrating CD8+ T cells ([1]; restimulated with PMA/ionomycin ex vivo) | microglial activation (conclusion) [2] | neuroprotection in the inflammatory in vitro model (conclusion) [2] | neurite network of cortical neurons (MAP-2) [2, 5] | survival of cortical neurons (MAP-2) [2, 5] | microglial activation (OX-41) ([2]; between 41.1 nM and 370 nM, Aβ1-42 72 hours) | increase in the percentage of Tscm in CD8+ cells vs DMSO [3] [%] | percentage of Tscm in CD8+ cells ([3]; DMSO 16.7%) [%] |
| --- | --- | --- | --- | --- | --- | --- | --- | --- | --- | --- | --- | --- | --- | --- | --- | --- | --- | --- |
| O=c1oc2cc(O)ccc2c2ccc(O)cc12 [UA, Urolithin A] | enhanced | significantly reduced | sensitized APTK tumors to PD-1 blockade | abrogated the tumor suppressive effect | abrogated the protective effect | no change | marked increase | increased expression | increased mitochondrial content | reduction | stronger induction |  |  |  |  |  |  |  |
| O=c1oc2cc(O)ccc2c2ccc(OC3CCOCC3)cc12 [compound 33, 3-hydroxy-8-((tetrahydro-2H-pyran-4-yl)oxy)-6H-benzo[c]chromen-6-one] |  |  |  |  |  |  |  |  |  |  |  | significantly reduce | neuroprotective | significantly protect | significantly protect | significant decrease | 81 | 30.2 |
